Results published in patent US5045567A, “Propanolamine derivatives having anti-diabetic effects” (Hoffmann-La Roche Inc., priority 1989, dated 1991).
Structures can show the parent of a compound that is named as a salt. Where two headings read alike, the source gives them in different places.

Legend:
[1] = Activity on oxygen consumption (male albino rats in metabolic cages, per os); format: in vivo; settings: po; for response vs control in vivo at 3 µM, 3 µmol/kg: dosage 3 μM/kg
Description: (1) -Activity on oxygen consumption
Male albino rats weighing 160-180 g were placed in metabolic cages after fasting for 24 hours. The cages were ventilated with a constant 6 liter room air/minute which was equilibrated at a dew point of 11° C. Samples of the spent air were collected during periods of in each case 14 minutes after again equilibrating and the oxygen content and CO2 content were analyzed. After an adaptation time of 4 hours the animals, divided into groups of 6, received either placebo (5% gum arabic) or the test substance (suspended in 5% gum arabic) per os. Thereafter, the determinations were carried out for a period of 12 hours. In Table I the average oxygen consumption after medication during the first 3 hours and the entire test duration (12 hours) is given as percentage of the oxygen consumption during the adaptation period. Corresponding corrections for changes in the placebo group have been taken into consideration.

[2] = Activity on heart rate (male albino rats, electrocardiogram, per os); format: in vivo; settings: rat; for Heart rate (% of controls), 1 hour: 1 hour after treatment; for Heart rate (% of controls), 3 hours: 3 hours after treatment
Description: (2) Activity on heart rate
Male albino rats weighing 250-320 g received 6 hours after withdrawl of food either placebo (5% gum arabic) or the test substance (suspended in 5% gum arabic) per os. The animals were subsequently immobilized in perforated plastic tubes. The electrocardiogram was derived by means of bipolar subcutaneous needle electrodes. The R-peak was used to trigger a beat counter. The heart rate measured 1 and 3 hours after treatment was given in Table II as a percentage of the control value (placebo).

[3] = 3 h, rat, per os, 1st-3rd hour, corrected for changes in placebo group, read-out: O2 consumption, % of the value of the pre-period, 1st-3rd hour
[4] = 12 h, rat, per os, 1st-12th hour, corrected for changes in placebo group, read-out: O2 consumption, % of the value of the pre-period, 1st-12th hour
[5] = 3 h, rat, per os, dosage 10 μM/kg, 1st-3rd hour, corrected for changes in placebo group, read-out: O2 consumption, % of the value of the pre-period, 1st-3rd hour
[6] = 12 h, rat, per os, dosage 10 μM/kg, 1st-12th hour, corrected for changes in placebo group, read-out: O2 consumption, % of the value of the pre-period, 1st-12th hour

SMILES	response vs control in vivo at 10 µM, 10 µmol/kg ([1]; Rattus norvegicus, 3 h, read-out: O2 consumption, % of the value of the pre-period, 1st-3rd hour)	response vs control in vivo at 10 µM, 10 µmol/kg ([1]; Rattus norvegicus, 12 h, read-out: O2 consumption, % of the value of the pre-period, 1st-12th hour)	Heart rate (% of controls), 1 hour ([2]; dosage 30 mg/kg)	Heart rate (% of controls), 3 hours ([2]; dosage 30 mg/kg)	Heart rate (% of controls), 1 hour ([2]; dosage 100 mg/kg)	Heart rate (% of controls), 3 hours ([2]; dosage 100 mg/kg)	response vs control in vivo at 3 µM, 3 µmol/kg [1, 3]	response vs control in vivo at 3 µM, 3 µmol/kg [1, 4]	Heart rate (% of controls), 1 hour ([2]; dosage 10 mg/kg)	response vs control in vivo at 10 µM, 10 µmol/kg [1, 5]	response vs control in vivo at 10 µM, 10 µmol/kg [1, 6]	Heart rate (% of controls), 3 hours ([2]; dosage 10 mg/kg)
CCOCCOc1ccc(C[C@@H](C)NCC(CO)c2ccccc2)cc1.O=C(O)C(=O)O (stereo partly drawn) [Example 2a, β-[[[(R)-p-(2-ethoxyethoxy)-α-methylphenethyl]amino]-methyl]-phenethyl alcohol oxalate]	149%	113%	105 % of controls	100 % of controls	121 % of controls	112 % of controls	–	–	–	–	–	–
CCOCCOc1ccc(CCNCC(CO)c2ccccc2)cc1.O=C(O)C(=O)O (single isomer, unassigned) [Example 3a, (R or S)-β-[[[p-(2-ethoxyethoxy)phenethyl]amino]methyl]-phenethyl alcohol oxalate]	–	–	115 % of controls	–	–	–	152%	112%	108 % of controls	–	–	–
CCOCCOc1ccc(CCNCC(CO)c2cccs2)cc1.O=C(O)C(=O)O (stereo not drawn) [Example 2o, β-[[[p-(2-ethoxyethoxy)phenethyl]amino]methyl]-2-thiophene-ethanol oxalate]	–	–	108 % of controls	–	111 % of controls	–	–	–	–	147%	115%	–
CCOCCOc1ccc(CCNCC(CO)c2cccc(Cl)c2)cc1.O=C(O)C(=O)O (stereo not drawn) [Example 2b, m-chloro-β-[[[p-(2-ethoxyethoxy)phenethyl]amino]methyl]phenethyl alcohol oxalate]	–	–	106 % of controls	99 % of controls	114 % of controls	105 % of controls	124%	107%	–	–	–	–
CCOC(=O)COc1ccc(CCNCC(CO)c2ccccc2)cc1 (stereo not drawn) [Example 4, ethyl [p-[2-[[β-(hydroxymethyl)phenethyl]-amino]ethyl]phenoxy]acetate hydrochloride]	–	–	–	–	–	–	145%	112%	–	–	–	–
OCC(CNCCc1ccc(OCCOCCc2ccccc2)cc1)c1ccccc1 (stereo not drawn) [Example 2j, β-[[[p-(2-phenethoxy)ethoxy]phenethyl]amino]methyl]phenethyl alcohol oxalate]	–	–	–	–	110 % of controls	–	–	–	–	137%	113%	–
CCOCCOc1ccc(CCN(CC(CO)c2cccc(Cl)c2)C[C@H](O)c2ccccc2)cc1 (stereo partly shown) [Example 2d, oxalate]	–	–	111 % of controls	104 % of controls	–	–	152%	127%	103 % of controls	–	–	100 % of controls
CCOCCOc1ccc(CCN(CC(CO)c2ccccc2)CC(CO)c2ccccc2)cc1 (racemic) [Example 2c]	–	–	111 % of controls	104 % of controls	–	–	132%	108%	103 % of controls	–	–	102 % of controls
